Measured values as given in ChEMBL document CHEMBL1201862, “PubChem BioAssay data set” (2004).
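Test compounds were applied to cells in 96-well plates for 48 hours at 5 doses. GI50 is the concentration that inhibits growth by half.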 Active and inactive are the calls of the source. Rule as the data show it: active = GI50 up to about 1.1 µM and inactive = higher.

Key:
Assay in all cases: inhibition of tumour cell growth, NCI panel, 48 h
786-0 = tested on: 786-0
A498 = tested on: A498
COLO 205 = tested on: COLO 205
DU-145 = tested on: DU-145
Hs-578T = tested on: Hs-578T
K562 = tested on: K562
LOX IMVI = tested on: LOX IMVI
MCF7 = tested on: MCF7
Malme-3M = tested on: Malme-3M
NCI-H522 = tested on: NCI-H522
NCI/ADR-RES = tested on: NCI/ADR-RES
OVCAR-5 = tested on: OVCAR-5
PC-3 = tested on: PC-3
SF-268 = tested on: SF-268
SK-MEL-2 = tested on: SK-MEL-2
T47D = tested on: T47D
U-251 = tested on: U-251
CAKI-1 = tested on: CAKI-1
SW-620 = tested on: SW-620

In the case of `COc1cc(-c2cc(=O)c3c(O)c(OC)c(OC)c(OC)c3o2)cc(OC)c1OC` [GARDENIN], the GI50 (786-0) is reported as 3.72 µM (inactive), the GI50 (A498) is reported as 2.92 µM (inactive) and the GI50 (COLO 205) is reported as > 100 µM (inactive). The GI50 (DU-145) was > 100 µM (inactive), the GI50 (Hs-578T) was 3.15 µM (inactive) and the GI50 (K562) was > 100 µM (inactive). The GI50 (LOX IMVI) was 6.31 µM (inactive), the GI50 (MCF7) was > 100 µM (inactive) and the GI50 (Malme-3M) was > 100 µM (inactive). For the same compound, the GI50 (NCI-H522) was 9.55 µM (inactive), the GI50 (NCI/ADR-RES) was 7.29 µM (inactive) and the GI50 (OVCAR-5) was > 68.9 µM (inactive). For the same compound, the GI50 (PC-3) was > 100 µM (inactive), the GI50 (SF-268) was 8.71 µM (inactive) and the GI50 (SK-MEL-2) was > 55.6 µM (inactive). The GI50 (T47D) was 10.2 µM (inactive) and the GI50 (U-251) was 3.01 µM (inactive).

In the case of `O=C1NN(Cc2ccccc2)C(=O)N2CCC[C@@H]12`, the GI50 (786-0) is reported as > 100 µM (inactive), the GI50 (A498) is reported as > 100 µM (inactive) and the GI50 (CAKI-1) is reported as > 100 µM (inactive). The GI50 (COLO 205) was > 100 µM (inactive), the GI50 (DU-145) was > 100 µM (inactive) and the GI50 (Hs-578T) was > 100 µM (inactive). For the same compound, the GI50 (LOX IMVI) was > 100 µM (inactive), the GI50 (MCF7) was > 100 µM (inactive) and the GI50 (Malme-3M) was > 100 µM (inactive). The GI50 (NCI/ADR-RES) was > 100 µM (inactive), the GI50 (OVCAR-5) was > 100 µM (inactive) and the GI50 (PC-3) was > 100 µM (inactive). For the same compound, the GI50 (SF-268) was > 100 µM (inactive), the GI50 (SK-MEL-2) was > 100 µM (inactive) and the GI50 (SW-620) was > 100 µM (inactive). For the same compound, the GI50 (T47D) was > 100 µM (inactive).

`O=C1CNc2cc(N3CCN(c4cccc(C(F)(F)F)c4)CC3)ccc2N1` was tested, and the GI50 (786-0) was > 100 µM (inactive), the GI50 (CAKI-1) was > 100 µM (inactive) and the GI50 (COLO 205) was 27.5 µM (inactive). For the same compound, the GI50 (DU-145) was > 100 µM (inactive), the GI50 (Hs-578T) was 42.1 µM (inactive) and the GI50 (LOX IMVI) was 38.4 µM (inactive). For the same compound, the GI50 (MCF7) was 43.1 µM (inactive), the GI50 (Malme-3M) was 14.2 µM (inactive) and the GI50 (NCI-H522) was 13.9 µM (inactive). For the same compound, the GI50 (NCI/ADR-RES) was 34.6 µM (inactive), the GI50 (OVCAR-5) was 68.5 µM (inactive) and the GI50 (PC-3) was 44.4 µM (inactive). The GI50 (SF-268) was > 100 µM (inactive), the GI50 (SK-MEL-2) was 0.755 µM (active) and the GI50 (SW-620) was 51.2 µM (inactive). The GI50 (T47D) was 32.3 µM (inactive) and the GI50 (U-251) was 31 µM (inactive).

`[N-]=[N+]=CC(=O)C1CCCN1C(=O)c1ccccc1` (stereo not given) was tested, and the GI50 (786-0) was > 10 µM (inactive), the GI50 (A498) was > 10 µM (inactive) and the GI50 (CAKI-1) was > 10 µM (inactive). The GI50 (COLO 205) was > 10 µM (inactive), the GI50 (DU-145) was > 10 µM (inactive) and the GI50 (Hs-578T) was > 10 µM (inactive). For the same compound, the GI50 (K562) was > 10 µM (inactive), the GI50 (LOX IMVI) was > 10 µM (inactive) and the GI50 (MCF7) was > 10 µM (inactive). The GI50 (Malme-3M) was > 10 µM (inactive), the GI50 (NCI/ADR-RES) was > 10 µM (inactive) and the GI50 (OVCAR-5) was > 10 µM (inactive). The GI50 (PC-3) was > 10 µM (inactive), the GI50 (SF-268) was > 10 µM (inactive) and the GI50 (SK-MEL-2) was > 10 µM (inactive). The GI50 (SW-620) was > 10 µM (inactive), the GI50 (T47D) was > 10 µM (inactive) and the GI50 (U-251) was > 10 µM (inactive).

`CC(C)=NNc1cnnc2ccc([N+](=O)[O-])cc12` was tested, and the GI50 (786-0) was 51.3 µM (inactive), the GI50 (CAKI-1) was 52 µM (inactive) and the GI50 (COLO 205) was 36.6 µM (inactive). For the same compound, the GI50 (DU-145) was > 100 µM (inactive), the GI50 (Hs-578T) was > 100 µM (inactive) and the GI50 (MCF7) was 57.8 µM (inactive). The GI50 (Malme-3M) was 63.8 µM (inactive), the GI50 (NCI-H522) was 15.5 µM (inactive) and the GI50 (NCI/ADR-RES) was > 100 µM (inactive). The GI50 (OVCAR-5) was > 100 µM (inactive), the GI50 (PC-3) was > 100 µM (inactive) and the GI50 (SF-268) was > 100 µM (inactive). For the same compound, the GI50 (SK-MEL-2) was > 100 µM (inactive), the GI50 (SW-620) was > 100 µM (inactive) and the GI50 (T47D) was 65.2 µM (inactive). For the same compound, the GI50 (U-251) was > 100 µM (inactive).

`O=[N+]([O-])c1ccc(/C=C(/c2ccc([N+](=O)[O-])o2)S(=O)(=O)c2ccccc2)o1` was tested, and the GI50 (786-0) was 3.17 µM (inactive), the GI50 (CAKI-1) was 18.5 µM (inactive) and the GI50 (COLO 205) was 2.13 µM (inactive). For the same compound, the GI50 (DU-145) was 14.8 µM (inactive), the GI50 (Hs-578T) was 15.4 µM (inactive) and the GI50 (K562) was 2.96 µM (inactive). The GI50 (MCF7) was 11.8 µM (inactive), the GI50 (Malme-3M) was 2.45 µM (inactive) and the GI50 (NCI-H522) was 1.93 µM (inactive). For the same compound, the GI50 (NCI/ADR-RES) was 18 µM (inactive), the GI50 (OVCAR-5) was 18.6 µM (inactive) and the GI50 (PC-3) was 16.4 µM (inactive). The GI50 (SF-268) was 15.6 µM (inactive), the GI50 (SK-MEL-2) was 17.4 µM (inactive) and the GI50 (SW-620) was 2.26 µM (inactive). The GI50 (T47D) was 11.4 µM (inactive) and the GI50 (U-251) was 15.9 µM (inactive).

In the case of `CC(=O)O[C@H]1CC[C@@]2(C)C(=CC[C@@H]3[C@@H]2CC[C@]2(C)C(=N/O)/C(=C/c4ccc([N+](=O)[O-])cc4)C[C@@H]32)C1`, the GI50 (786-0) is reported as 4.89 µM (inactive), the GI50 (A498) is reported as 4.71 µM (inactive) and the GI50 (CAKI-1) is reported as 1.39 µM (inactive). For the same compound, the GI50 (COLO 205) was 2.29 µM (inactive), the GI50 (DU-145) was 5.26 µM (inactive) and the GI50 (Hs-578T) was 2.39 µM (inactive). For the same compound, the GI50 (K562) was 3.1 µM (inactive), the GI50 (LOX IMVI) was 6.52 µM (inactive) and the GI50 (Malme-3M) was 4.61 µM (inactive). The GI50 (NCI-H522) was 2.08 µM (inactive), the GI50 (NCI/ADR-RES) was 6.84 µM (inactive) and the GI50 (PC-3) was 2.72 µM (inactive). The GI50 (SF-268) was 3.66 µM (inactive), the GI50 (SK-MEL-2) was 3.53 µM (inactive) and the GI50 (SW-620) was 6.24 µM (inactive). The GI50 (T47D) was 0.338 µM (active).

In the case of `N#CC(C#N)=C/C=C(\Sc1c(Cl)c(Cl)nc(Cl)c1Cl)c1ccc(Cl)cc1`, the GI50 (786-0) is reported as 4.45 µM (inactive), the GI50 (CAKI-1) is reported as 14.5 µM (inactive) and the GI50 (COLO 205) is reported as 24.4 µM (inactive). For the same compound, the GI50 (DU-145) was 21.1 µM (inactive), the GI50 (Hs-578T) was 15.7 µM (inactive) and the GI50 (K562) was 5.93 µM (inactive). For the same compound, the GI50 (LOX IMVI) was 5.56 µM (inactive), the GI50 (MCF7) was 31.1 µM (inactive) and the GI50 (Malme-3M) was 23 µM (inactive). The GI50 (NCI-H522) was 18.8 µM (inactive), the GI50 (NCI/ADR-RES) was 12.8 µM (inactive) and the GI50 (OVCAR-5) was 21.5 µM (inactive). For the same compound, the GI50 (PC-3) was 30 µM (inactive), the GI50 (SF-268) was 19.6 µM (inactive) and the GI50 (SK-MEL-2) was 32.4 µM (inactive). For the same compound, the GI50 (SW-620) was 5.77 µM (inactive), the GI50 (T47D) was 31.6 µM (inactive) and the GI50 (U-251) was 16.8 µM (inactive).
